Results as given in patent US20230352114A1, “METHODS OF PROVIDING MODULATORS OF TAU AGGREGATION” (GTInvent Limited, priority 2020, published 2023).
“Also recorded” adds a separate entry of the source.

Assays:
Tau aggregation = experiment: cell-based tau aggregation assay (Rickard et al., 2017); conditions: tau aggregation inhibition
Description: Selected or designed compounds may further be synthesised or obtained and tested for their ability to modulate Tau aggregation, for example in a cell-based aggregation assay as described in Rickard et al., 2017.
These compounds were assessed in a cell-based Tau aggregation assay. […] The substituents were designed to test the required strength of hydrogen bonds with the pocket, as well as optimal orientation for hydrophobic and pi interactions.

dGAE [1] = biological target: T1, dGAE (Homo sapiens, UniProt P10636); experiment: protease digestion (Proteinase K / Pronase E) of assembled dGAE, SDS-PAGE; format: biochemical; conditions: 100 μM dGAE, 10 mM DTT, ratios up to 1:5, 72 hours
T1 construct: Recombinant tau297-391 (dGAE) was produced and purified from; made in house; host or cells: E. coli
Description: Protease digestion: 100 μM dGAE with 10 mM DTT in phosphate buffer (20 mM, pH 7.4), with or without MTC at ratios up to 1:5 was agitated at 700 rpm, 37° C. for 72 hours. 10 μg aliquots were digested with increasing concentrations of Proteinase K (PK), Pronase E (PE), or left untreated. The digestion was carried out at 37° C. for 1 hour then the reaction was stopped with 1 mM Pefabloc and samples were placed on ice for 5 minutes. Sample buffer without any reducing agent was added, incubated for 5 minutes at room temperature then loaded onto a gel.
Soluble or fibrils of dGAE (100 μM) in reducing conditions (10 mM DTT) were incubated with increasing concentrations of proteinase K or Pronase E then samples were run on SDS-PAGE.

dGAE [2] = biological target: T1, dGAE; experiment: sandwich ELISA epitope occlusion assay of dGAE aggregates with core region scAbs; format: biochemical; conditions: dGAE with DTT, 1:5 ratio, 24 h at 37° C.; total and supernatant samples
Description: The truncated core repeat domain dGAE (297-391), is the predominant fragment that constitutes bulk of the PHF core in AD (Wischik et al, 1988). During dGAE aggregation in vitro, scAb binding regions on dGAE are ‘hidden’ or ‘occluded’ which leads to a loss of immunoreactivity in aggregation samples. Here we have shown the occlusion of binding regions in aggregated dGAE samples and the recovery of immunoreactivity in the presence of LMTM, a tau-aggregation inhibitor. For preparing the aggregates, 10 μl 10 mM DTT was added to 1000 μl 100 μM dGAE and agitated with/without LMTM (1:5 ratio) at 700 rpm for 24 h at 37° C. Following overnight agitation, one third of each sample was kept aside as ‘total’ and the rest was spun down at 16000×g for 30 min and separated into ‘supernatant’ and ‘pellet’. The pellet was then resuspended in half the original volume for further experiments. The immunoreactivities of core region specific scAbs towards dGAE aggregates formed with/without LMTM was tested using a sandwich ELISA format using a ‘E’ specific monoclonal antibody 423 mAb. […] ELISA plates were coated with 10 μg/ml 423 mAb and blocked as normal. Doubling dilutions of dGAE aggregate ‘total’, ‘supernatant’ and ‘pellet’ samples at 10 μg/ml starting concentration were added to designated wells in doubling dilutions in 1×PBS. dGAE monomer (non-aggregated) was included as assay control. […]

[3] = clinical evidence; fold lower; cited from earlier work

T1 sequence (P10636 614-708): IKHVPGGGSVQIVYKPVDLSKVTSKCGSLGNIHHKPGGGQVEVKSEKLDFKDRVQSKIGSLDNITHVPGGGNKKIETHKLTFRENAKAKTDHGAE

| SMILES | EC50 (Tau aggregation) [nM] | formation of protease resistant core of dGAE (dGAE [1]) | immunoreactivity of core region scAbs to dGAE aggregated in presence of the compound (dGAE [2]) | effective dose relative to minimum effective dose of the oxidized MT+ form [3] [fold] |
| --- | --- | --- | --- | --- |
| CN(C)c1ccc2c(c1)Sc1cc(N(C)C)ccc1N2 [LMT, leuco-methylthioninium] | 96 | loss of protease resistance; also recorded: prevents the formation of a protease resistant core | loss of immunoreactivity could be prevented |  |
| CN(C)c1ccc2c(c1)Sc1cc(N(C)C)ccc1N2.CS(=O)(=O)O.CS(=O)(=O)O [LMTM, hydromethylthioninium mesylate] |  |  | increase in immunoreactivity; also recorded: increased binding | 20 |
